The record followed here is patent publication US20260151391A1, “TREATMENT OF MITOCHONDRIAL DISEASES WITH sGC STIMULATORS” (Tisento Therapeutics Inc., priority 2022, published 2026).

This series has as its system memory disruption induced by MK-801 in male Long Evans rats. The series can be described thus: Novel Object Recognition (NOR) test, memory disruption induced by MK-801. It is filed as in vivo, rat. The settings on record: any dose tested, oral. Here is the method:
In the present study, a memory saving model was used. MK-801 (Dizocilpine), an uncompetitive antagonist of the NMDA receptor was used to cause deficit of recognition memory. sGC stimulators were evaluated for their efficacy to prevent memory impairment induced by MK-801.
Adult male Long-Evans rats (275-299 gram at arrival from Envigo, Indianapolis, IN) were used in this study. Rats were placed in the experimental rooms and assigned unique identification numbers (tail marks). Rats were housed 2 per cage in polycarbonate cages with filter tops and acclimated for at least 7 days prior to testing. […]
NOR test was conducted in an open-field arena (40×40 cm) placed in a sound-attenuated room under dimmed lighting. […] All training and testing trials were video-taped and scored by an observer blind to treatments.
On Days 1 and 2, rats were allowed to freely explore the arena (no objects inside) for a 5-minute habituation period. […] Each rat was placed in the arena facing the same direction at the same position, and the time spent actively exploring the objects during a 3-minute training period (T1) was recorded. […] Each rat was placed back into the test arena in the presence of one familiar object and one novel object for 5 minutes, and the time spent exploring both objects was recorded. […]

Turning to `Oc1nc(-c2cn3ccnc3c(Cc3cc(F)ccc3F)n2)ncc1F` [Compound I-20, 5-fluoro-2-(8-(2,5-difluorobenzyl)imidazo[1,2-a]pyrazin-6-yl)pyrimidin-4-ol], the “obvious side effects in NOR study” value is “None of the rats in this study showed obvious side effects”.
